From PubChem BioAssay AID1259407 (Chemical Carcinogenesis Research Information System (CCRIS), 2018)
Activity calls are given as the source filed them. The rule behind the calls is not given here.

Test system: CCRIS mutagenicity, Ames/micronucleus/aberration tests
Test: CCRIS mutagenicity studies
[1] = Test System: AMES SALMONELLA TYPHIMURIUM, Strain/Indicator: TA98, Metabolic Activation: NONE, Method: STANDARD PLATE
[2] = Test System: AMES SALMONELLA TYPHIMURIUM, Strain/Indicator: TA100, Metabolic Activation: NONE, Method: STANDARD PLATE
[3] = Test System: AMES SALMONELLA TYPHIMURIUM, Strain/Indicator: TA1535, Metabolic Activation: NONE, Method: STANDARD PLATE
[4] = Test System: AMES SALMONELLA TYPHIMURIUM, Strain/Indicator: TA1537, Metabolic Activation: NONE, Method: STANDARD PLATE
[5] = Test System: MOUSE LYMPHOMA, Strain/Indicator: L5178Y (TK+/TK-), Metabolic Activation: NONE, Method: SUSPENSION/PLATE
[6] = Test System: MOUSE LYMPHOMA, Strain/Indicator: L5178Y (TK+/TK-), Metabolic Activation: RAT, LIVER, S-9, AROCLOR 1254, Method: SUSPENSION/PLATE

Q: With CC(C)N=C=NC(C)C as the compound, how does the mutagenic call (End Point: In vivo micronucleus, Test System: Bone marrow polychromatic erythrocytes, Species: Mouse, Strain/Sex: B6C3F1/Male, Route: Intraperitoneal) read?
A: inactive; negative

Q: And the mutagenic call (End Point: In vivo micronucleus, Test System: Bone marrow polychromatic erythrocytes, Species: Rat, Strain/Sex: F344/N/Male, Route: Intraperitoneal)?
A: inactive; negative

Q: And the mutagenic call (End Point: In vivo micronucleus, Test System: Peripheral blood erythrocytes, Species: Mouse, Strain/Sex: B6C3F1/Female, Route: Dermal)?
A: active; positive; 100% mortality at 280 mg/kg

Q: What about the mutagenic call (End Point: In vivo micronucleus, Test System: Peripheral blood erythrocytes, Species: Mouse, Strain/Sex: B6C3F1/Male, Route: Dermal) of the same compound?
A: active; positive; 100% mortality at 280 mg/kg

Q: What about the mutagenic call (End Point: In vivo micronucleus, Test System: Peripheral blood normochromatic and polychromatic erythrocytes and bone marrow polychromatic erythrocytes, Species: Mouse, Strain/Sex: B6C3F1/Male, Route: Dermal) of the same compound?
A: inactive; positive (peripheral blood); negative (bone marrow)

Q: And the mutagenic call (End Point: In vivo micronucleus, Test System: Polychromatic erythrocytes (Bone marrow and peripheral blood), Species: Mouse, Strain/Sex: B6C3F1/Male, Route: Intraperitoneal)?
A: active; positive in peripheral blood polychromatic erythrocytes; no significant increase

Q: And the mutagenic call (Test System: AMES SALMONELLA TYPHIMURIUM, Strain/Indicator: TA98, Metabolic Activation: HAMSTER, LIVER, S-9, AROCLOR 1254, Method: STANDARD PLATE)?
A: inactive; negative

Q: And the mutagenic call [1]?
A: inactive; negative

Q: And the mutagenic call (Test System: AMES SALMONELLA TYPHIMURIUM, Strain/Indicator: TA98, Metabolic Activation: RAT, LIVER, S-9, AROCLOR 1254, Method: STANDARD PLATE)?
A: inactive; negative

Q: What about the mutagenic call (Test System: AMES SALMONELLA TYPHIMURIUM, Strain/Indicator: TA100, Metabolic Activation: HAMSTER, LIVER, S-9, AROCLOR 1254, Method: STANDARD PLATE) of the same compound?
A: inactive; negative

Q: And the mutagenic call [2]?
A: inactive; negative

Q: And the mutagenic call (Test System: AMES SALMONELLA TYPHIMURIUM, Strain/Indicator: TA100, Metabolic Activation: RAT, LIVER, S-9, AROCLOR 1254, Method: STANDARD PLATE)?
A: inactive; negative

Q: And the mutagenic call (Test System: AMES SALMONELLA TYPHIMURIUM, Strain/Indicator: TA1535, Metabolic Activation: HAMSTER, LIVER, S-9, AROCLOR 1254, Method: STANDARD PLATE)?
A: inactive; negative

Q: And the mutagenic call [3]?
A: inactive; negative

Q: What about the mutagenic call (Test System: AMES SALMONELLA TYPHIMURIUM, Strain/Indicator: TA1535, Metabolic Activation: RAT, LIVER, S-9, AROCLOR 1254, Method: STANDARD PLATE) of the same compound?
A: inactive; negative

Q: What about the mutagenic call (Test System: AMES SALMONELLA TYPHIMURIUM, Strain/Indicator: TA1537, Metabolic Activation: HAMSTER, LIVER, S-9, AROCLOR 1254, Method: STANDARD PLATE) of the same compound?
A: inactive; negative

Q: And the mutagenic call [4]?
A: inactive; negative

Q: What about the mutagenic call (Test System: AMES SALMONELLA TYPHIMURIUM, Strain/Indicator: TA1537, Metabolic Activation: RAT, LIVER, S-9, AROCLOR 1254, Method: STANDARD PLATE) of the same compound?
A: inactive; negative

Q: And the mutagenic call (Test System: AMES SALMONELLA TYPHIMURIUM, Strain/Indicator: TA1538, Metabolic Activation: HAMSTER, LIVER, S-9, AROCLOR 1254, Method: STANDARD PLATE)?
A: inactive; negative

Q: What about the mutagenic call (Test System: AMES SALMONELLA TYPHIMURIUM, Strain/Indicator: TA1538, Metabolic Activation: NONE, Method: STANDARD PLATE) of the same compound?
A: inactive; negative

Q: What about the mutagenic call (Test System: AMES SALMONELLA TYPHIMURIUM, Strain/Indicator: TA1538, Metabolic Activation: RAT, LIVER, S-9, AROCLOR 1254, Method: STANDARD PLATE) of the same compound?
A: inactive; negative

Q: What about the mutagenic call (Test System: Ames Salmonella typhimurium, Strain/Indicator: TA97, Metabolic Activation: None, Method: Preincubation) of the same compound?
A: inactive; negative

Q: And the mutagenic call (Test System: Ames Salmonella typhimurium, Strain/Indicator: TA97, Metabolic Activation: Rat, liver, S-9, Aroclor 1254, Method: Preincubation)?
A: inactive; negative

Q: And the mutagenic call (Test System: Ames Salmonella typhimurium, Strain/Indicator: TA97, Metabolic Activation: Syrian hamster, liver, S-9, Aroclor 1254, Method: Preincubation)?
A: inactive; negative

Q: And the mutagenic call (Test System: Ames Salmonella typhimurium, Strain/Indicator: TA98, Metabolic Activation: None, Method: Preincubation)?
A: inactive; negative

Q: What about the mutagenic call (Test System: Ames Salmonella typhimurium, Strain/Indicator: TA98, Metabolic Activation: Rat, liver, S-9, Aroclor 1254, Method: Preincubation) of the same compound?
A: inactive; negative

Q: What about the mutagenic call (Test System: Ames Salmonella typhimurium, Strain/Indicator: TA98, Metabolic Activation: Syrian hamster, liver, S-9, Aroclor 1254, Method: Preincubation) of the same compound?
A: inactive; negative

Q: What about the mutagenic call (Test System: Ames Salmonella typhimurium, Strain/Indicator: TA100, Metabolic Activation: None, Method: Preincubation) of the same compound?
A: inactive; negative

Q: What about the mutagenic call (Test System: Ames Salmonella typhimurium, Strain/Indicator: TA100, Metabolic Activation: Rat, liver, S-9, Aroclor 1254, Method: Preincubation) of the same compound?
A: inactive; negative

Q: And the mutagenic call (Test System: Ames Salmonella typhimurium, Strain/Indicator: TA100, Metabolic Activation: Syrian hamster, liver, S-9, Aroclor 1254, Method: Preincubation)?
A: inactive; negative

Q: And the mutagenic call (Test System: Ames Salmonella typhimurium, Strain/Indicator: TA1535, Metabolic Activation: None, Method: Preincubation)?
A: inactive; negative

Q: And the mutagenic call (Test System: Ames Salmonella typhimurium, Strain/Indicator: TA1535, Metabolic Activation: Rat, liver, S-9, Aroclor 1254, Method: Preincubation)?
A: inactive; negative

Q: What about the mutagenic call (Test System: Ames Salmonella typhimurium, Strain/Indicator: TA1535, Metabolic Activation: Syrian hamster, liver, S-9, Aroclor 1254, Method: Preincubation) of the same compound?
A: inactive; negative

Q: And the mutagenic call [5]?
A: active; positive. reevaluation of results: positive

Q: What about the mutagenic call [6] of the same compound?
A: active; positive. reevaluation of results: positive

Q: With CCC(C)Nc1snc2ccccc12 (stereo not given) as the compound, how does the mutagenic call [1] read?
A: inactive; negative

Q: What about the mutagenic call (Test System: AMES SALMONELLA TYPHIMURIUM, Strain/Indicator: TA98, Metabolic Activation: S-9, Method: STANDARD PLATE) of the same compound?
A: inactive; negative

Q: And the mutagenic call [2]?
A: inactive; negative

Q: And the mutagenic call (Test System: AMES SALMONELLA TYPHIMURIUM, Strain/Indicator: TA100, Metabolic Activation: S-9, Method: STANDARD PLATE)?
A: inactive; negative

Q: What about the mutagenic call [3] of the same compound?
A: inactive; negative

Q: And the mutagenic call (Test System: AMES SALMONELLA TYPHIMURIUM, Strain/Indicator: TA1535, Metabolic Activation: S-9, Method: STANDARD PLATE)?
A: inactive; negative

Q: And the mutagenic call [4]?
A: inactive; negative

Q: What about the mutagenic call (Test System: AMES SALMONELLA TYPHIMURIUM, Strain/Indicator: TA1537, Metabolic Activation: S-9, Method: STANDARD PLATE) of the same compound?
A: inactive; negative

Q: For CN(C)C(=O)Cl, which mutagenic call [2] is on record?
A: active; positive

Q: And the mutagenic call [3]?
A: active; positive

Q: And the mutagenic call (Test System: E. COLI, Strain/Indicator: WP2 UVRA, Metabolic Activation: HAMSTER, LIVER, S-9, AROCLOR 1254, Method: PREINCUBATION)?
A: inactive; negative

Q: And the mutagenic call (Test System: E. COLI, Strain/Indicator: WP2 UVRA, Metabolic Activation: HAMSTER, LIVER, S-9, AROCLOR 1254, Method: STANDARD PLATE)?
A: inactive; negative

Q: What about the mutagenic call (Test System: E. COLI, Strain/Indicator: WP2 UVRA, Metabolic Activation: HAMSTER, LIVER, S-9, Method: STANDARD PLATE) of the same compound?
A: inactive; negative

Q: What about the mutagenic call (Test System: E. COLI, Strain/Indicator: WP2 UVRA, Metabolic Activation: MOUSE, LIVER, S-9, AROCLOR 1254, Method: PREINCUBATION) of the same compound?
A: inactive; negative

Q: What about the mutagenic call (Test System: E. COLI, Strain/Indicator: WP2 UVRA, Metabolic Activation: MOUSE, LIVER, S-9, AROCLOR 1254, Method: STANDARD PLATE) of the same compound?
A: inactive; negative

Q: And the mutagenic call (Test System: E. COLI, Strain/Indicator: WP2 UVRA, Metabolic Activation: MOUSE, LIVER, S-9, Method: PREINCUBATION)?
A: inactive; negative

Q: And the mutagenic call (Test System: E. COLI, Strain/Indicator: WP2 UVRA, Metabolic Activation: MOUSE, LIVER, S-9, Method: STANDARD PLATE)?
A: inactive; negative

Q: What about the mutagenic call (Test System: E. COLI, Strain/Indicator: WP2 UVRA, Metabolic Activation: NONE, Method: STANDARD PLATE) of the same compound?
A: inactive; negative

Q: And the mutagenic call (Test System: E. COLI, Strain/Indicator: WP2 UVRA, Metabolic Activation: RAT, LIVER, S-9, AROCLOR 1254, Method: STANDARD PLATE)?
A: inactive; negative

Q: What about the mutagenic call (Test System: E. COLI, Strain/Indicator: WP2 UVRA, Metabolic Activation: RAT, LIVER, S-9, Method: STANDARD PLATE) of the same compound?
A: inactive; negative

Q: What about the mutagenic call [5] of the same compound?
A: active; positive

Q: And the mutagenic call [6]?
A: active; positive

Q: For CCC(=O)OCc1ccccc1[N+](=O)[O-], which mutagenic call (Test System: AMES SALMONELLA TYPHIMURIUM, Strain/Indicator: TA98, Metabolic Activation: NONE, Method: PREINCUBATION) is on record?
A: inactive; negative

Q: And the mutagenic call (Test System: AMES SALMONELLA TYPHIMURIUM, Strain/Indicator: TA100, Metabolic Activation: NONE, Method: PREINCUBATION)?
A: inactive; negative

Q: What about the mutagenic call (Test System: AMES SALMONELLA TYPHIMURIUM, Strain/Indicator: TA100, Metabolic Activation: RAT, LIVER, S-9, AROCLOR 1254, Method: PREINCUBATION) of the same compound?
A: inactive; negative
